Data reported in patent US8569267B2, “Tetracyclic tetrahydrofuran derivatives containing cyclic amine side chain” (Janssen Pharmaceutica, NV, priority 2005, dated 2013).

What was measured:
[1] = target: T1, human cloned 5-HT2A receptor, expressed in L929 cells (Homo sapiens, UniProt P28223); assay: In vitro binding affinity for 5-HT2A receptor ([125I]R91150 radioligand binding); conditions: human cloned 5-HT2A receptor in L929 cells, [125I]R91150; for IC50: read-out: 5-HT2A pIC50 (converted)
T1 construct: expressed in transfected cells; host or cells: L929 cells
T1 sequence (P28223 whole entry): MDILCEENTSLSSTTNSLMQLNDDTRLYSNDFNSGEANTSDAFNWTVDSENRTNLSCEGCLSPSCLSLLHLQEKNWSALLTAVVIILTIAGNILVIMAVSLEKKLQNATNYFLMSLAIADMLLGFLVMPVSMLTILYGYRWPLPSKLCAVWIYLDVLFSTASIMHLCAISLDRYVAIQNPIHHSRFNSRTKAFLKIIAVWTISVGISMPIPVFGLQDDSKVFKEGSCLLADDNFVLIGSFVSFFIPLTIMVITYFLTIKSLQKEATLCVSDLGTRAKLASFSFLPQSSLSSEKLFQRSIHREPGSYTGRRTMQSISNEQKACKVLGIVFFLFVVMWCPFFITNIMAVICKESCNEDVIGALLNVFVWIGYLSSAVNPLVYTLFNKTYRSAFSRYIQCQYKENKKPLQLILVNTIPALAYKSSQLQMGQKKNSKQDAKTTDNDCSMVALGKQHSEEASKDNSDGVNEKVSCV
Procedure: In Vitro Binding Affinity for 5-HT2A and 5-HT2C Receptors
The interaction of the compounds of Formula (I) with 5-HT2A and 5-HT2C receptors was assessed in in vitro radioligand binding experiments. […] During the incubation, the radioligands bind to the receptor. When equilibrium of binding is reached, the receptor bound radioactivity is separated from the non-bound radioactivity, and the receptor bound activity is counted. The interaction of the test compounds with the receptors is assessed in competition binding experiments. Various concentrations of the test compound are added to the incubation mixture containing the tissue preparation and the radioligand. Binding of the radioligand will be inhibited by the test compound in proportion to its binding affinity and its concentration. The affinities of the compounds for the 5-HT2 receptors were measured by means of radioligand binding studies conducted with: (a) human cloned 5-HT2A receptor, expressed in L929 cells using [^125I]R91150 as radioligand and (b) human cloned 5-HT2C receptor, expressed in CHO cells using [^3H]mesulergine as radioligand.

[2] = target: T2, human Dopamine D2L receptor (Homo sapiens, UniProt P14416); assay: In vitro binding affinity for human D2L receptor ([3H]Spiperone binding); conditions: human D2L receptor-transfected CHO cell membranes; for IC50: read-out: D2L pIC50 (converted)
T2 construct: expressed in transfected cells; host or cells: CHO cells
T2 sequence (P14416 whole entry): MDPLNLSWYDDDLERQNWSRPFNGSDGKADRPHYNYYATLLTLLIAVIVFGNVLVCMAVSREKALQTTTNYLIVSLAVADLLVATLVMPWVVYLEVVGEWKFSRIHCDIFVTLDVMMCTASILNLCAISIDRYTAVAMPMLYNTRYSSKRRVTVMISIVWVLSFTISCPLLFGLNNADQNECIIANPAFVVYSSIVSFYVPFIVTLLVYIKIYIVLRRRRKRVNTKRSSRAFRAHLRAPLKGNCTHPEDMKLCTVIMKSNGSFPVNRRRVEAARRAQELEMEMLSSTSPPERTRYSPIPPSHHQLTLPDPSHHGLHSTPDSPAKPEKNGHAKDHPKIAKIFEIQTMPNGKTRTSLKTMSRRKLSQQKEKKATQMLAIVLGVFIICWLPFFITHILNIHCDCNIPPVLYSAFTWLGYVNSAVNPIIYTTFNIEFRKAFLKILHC
Method in brief: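 Competition curves were expressed as percent specific binding, measured by scintillation counting after filtration onto GF/B filters and ice-cold Tris washes. Test compounds competed with [3H]Spiperone, added from a 2 nmol/L dilution, for 30 min at 37° C on transfected CHO membranes in pH 7.7 Tris-HCl salt buffer. Butaclamol at 10^−6 mol/l final marked non-specific binding.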

[3] = target: T3, human cloned 5-HT2C receptor, expressed in CHO cells (Homo sapiens, UniProt P28335); assay: In vitro binding affinity for 5-HT2C receptor ([3H]mesulergine radioligand binding); conditions: human cloned 5-HT2C receptor; for IC50: read-out: 5-HT2C pIC50 (converted)
T3 construct: expressed in transfected cells; host or cells: CHO cells
T3 sequence (P28335 33-458): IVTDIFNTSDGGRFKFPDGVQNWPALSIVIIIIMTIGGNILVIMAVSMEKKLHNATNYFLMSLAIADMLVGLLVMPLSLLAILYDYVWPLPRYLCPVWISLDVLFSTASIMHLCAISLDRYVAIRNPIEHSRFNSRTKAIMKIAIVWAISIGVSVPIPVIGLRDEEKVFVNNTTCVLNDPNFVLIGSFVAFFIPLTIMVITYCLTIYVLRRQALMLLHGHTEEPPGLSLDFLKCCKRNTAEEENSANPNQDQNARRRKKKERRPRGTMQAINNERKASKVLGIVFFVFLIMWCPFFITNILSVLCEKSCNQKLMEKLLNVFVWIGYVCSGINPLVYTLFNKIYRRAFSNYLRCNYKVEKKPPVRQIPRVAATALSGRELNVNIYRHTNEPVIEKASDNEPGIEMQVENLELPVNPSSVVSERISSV
Method in brief: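 Receptor-bound radioligand counted after separation from unbound label once equilibrium is reached. Test compound added across a concentration range to tissue preparation plus radioligand; inhibition of binding reflects affinity and concentration.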

[4] = target: T4, NET (norepinephrine transporter) (Rattus norvegicus, UniProt Q63380); assay: In vitro determination of NET reuptake inhibition ([3H]Nixosetine binding, rat brain cortex); conditions: rat brain cortex; for IC50: read-out: NET pIC50 (converted)
T4 construct: Cortex from rat brain was collected and homogenised; from tissue; host or cells: rat brain cortex
T4 sequence (Q63380 1-617): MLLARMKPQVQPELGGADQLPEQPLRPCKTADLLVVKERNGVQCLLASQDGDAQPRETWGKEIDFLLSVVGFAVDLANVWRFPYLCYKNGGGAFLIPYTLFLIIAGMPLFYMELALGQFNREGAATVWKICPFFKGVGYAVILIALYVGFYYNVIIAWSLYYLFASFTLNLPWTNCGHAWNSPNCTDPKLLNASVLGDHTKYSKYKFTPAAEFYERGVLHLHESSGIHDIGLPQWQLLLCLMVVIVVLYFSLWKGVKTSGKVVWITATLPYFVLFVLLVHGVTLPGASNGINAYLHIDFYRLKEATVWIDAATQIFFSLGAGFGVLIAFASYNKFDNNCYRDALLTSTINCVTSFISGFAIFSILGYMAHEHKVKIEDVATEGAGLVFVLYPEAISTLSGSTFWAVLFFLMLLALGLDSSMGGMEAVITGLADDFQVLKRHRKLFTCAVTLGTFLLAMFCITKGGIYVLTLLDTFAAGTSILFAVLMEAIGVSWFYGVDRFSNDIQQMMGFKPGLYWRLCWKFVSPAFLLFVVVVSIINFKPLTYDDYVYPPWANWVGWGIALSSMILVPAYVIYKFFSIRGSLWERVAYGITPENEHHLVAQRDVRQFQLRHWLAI
Method in brief: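 Competition curves and percentage specific binding came from scintillation counting of filter-trapped radioactivity. The membranes were rat cortical homogenate in pH 7.4 Tris buffer with 120 mM NaCl and 5 mM KCl. Test compounds competed with [3H]nisoxetine for binding.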

SMILES	IC50 [1] [nM]	IC50 [2] [nM]	IC50 [3] [nM]	IC50 [4] [nM]	5-HT2A pIC50 [1]	D2L pIC50 [2]	5-HT2C pIC50 [3]	NET pIC50 [4]
CSc1nccc(N2CCN(CC3CC4c5ccccc5Cc5ccc(F)cc5C4O3)CC2)n1 (centres unmarked) [Compound 124]	8.91	47.9	30.9	2290				
CCCCCCCCCCNC(=O)C1CCN(C[C@H]2C[C@@H]3c4ccccc4Cc4ccc(F)cc4[C@@H]3O2)CC1 [Compound 178]	< 10	50.1	9.33	> 10000				
Fc1ccc2c(c1)C1OC(CN3CCN(c4cnccn4)CC3)CC1c1ccccc1C2 (centres unmarked) [Compound 123]	2.75	40.7	7.24	2820				
Fc1ccc2c(c1)C1OC(CN3CCN(Cc4ccc5ccccc5c4)CC3)CC1c1ccccc1C2 (centres unmarked) [Compound 74]	126	30.9	162	3160				
CN(CCO)CCC1CN(CC2CC3c4ccccc4Cc4ccc(F)cc4C3O2)CCO1 (mixture of isomers) [Compound 133]	49	355	34.7	933				
COC(=O)c1ccc(CN2CCN(CC3CC4c5ccccc5Cc5ccc(F)cc5C4O3)CC2)cc1 (centres unmarked) [Compound 72]	30.9	26.9	60.3	1170				
N#CC1CCCN(C[C@H]2C[C@@H]3c4ccccc4Cc4ccc(F)cc4[C@@H]3O2)CC1.O=C(O)C(=O)O.O=C(O)C(=O)O (mixture of isomers) [Compound 268]					8.52	7.92	8.24	<5
CN1c2ccccc2C2CC(CN3CCC(O)C3)OC2c2ccccc21 (racemic) [Compound 263]	251	550	13.2	2880				
O=C(Nc1ccc(F)c(Cl)c1)C1CCN(CC2CC3c4ccccc4Cc4ccc(F)cc4C3O2)CC1 (centres unmarked) [Compound 190]	< 10	47.9	2.75	> 10000				
OCC1CCCN(C[C@H]2C[C@@H]3c4ccccc4Cc4ccc(F)cc4[C@@H]3O2)C1 (stereo partly drawn) [Compound 147, [2R-(2α, 3aα, 12bβ)]-(3′RS)-[1-(11-fluoro-3,3a,8,12b-tetrahydro-2H-1-oxa-dibenzo[e,h]azulen-2-ylmethyl)-piperidin-3-yl]-methanol.oxalate (1:1)]	1.1	4.79	1.26	> 10000				
O=C(NCCCn1ccnc1)C1CCN(CC2CC3c4ccccc4Cc4ccc(F)cc4C3O2)CC1 (centres unmarked) [Compound 180]	2.45	37.2	3.89	> 10000				
OCC1CCN(C[C@H]2C[C@@H]3c4ccccc4Cc4ccc(F)cc4[C@@H]3O2)C1 (some centres unmarked) [Compound 5]	< 10	8.51	0.204	4070				
OCCCC1CCN(CC2CC3c4ccccc4Cc4ccc(F)cc4C3O2)CC1 (stereo not drawn) [Compound 155, [2R-(2α, 3aα, 12bβ)]3-[1-(11-fluoro-3,3a,8,12b-tetrahydro-2H-1-oxa-dibenzo[e,h]-azulen-2-ylmethyl)-piperidin-4-yl]-propan-1-ol.oxalate (1:1)]	1.51	1.48	2.88	1860				
O=C(C1CCN(CC2CC3c4ccccc4Cc4ccc(F)cc4C3O2)CC1)N1CCN(CC=Cc2ccccc2)CC1 (centres unmarked) [Compound 204]	3.16	66.1	10.5	3470				
Fc1ccc2c(c1)[C@@H]1O[C@@H](CN3CCN(c4cccc(C(F)(F)F)n4)CC3)C[C@@H]1c1ccccc1C2 [Compound 119]	10.2	158	51.3	4070				
O=C(C1CCN(CC2CC3c4ccccc4Cc4ccc(F)cc4C3O2)CC1)N1CCC1 (centres unmarked) [Compound 200]	< 10	15.5	8.13	> 10000				
COC(=O)C1CCN(C[C@H]2C[C@@H]3c4ccccc4Cc4ccc(F)cc4[C@@H]3O2)C1 (some centres unmarked) [Compound 12]	1.17	6.31	2.04	759				
